According to article PMC6853232, “Discovery and evaluation of novel synthetic 5-alkyl-4-oxo-4,5-dihydro-[1,2,4]triazolo[4,3-a]quinoxaline-1-carbox-amide derivatives as anti-inflammatory agents” (Journal of Enzyme Inhibition and Medicinal Chemistry, 2019):
Where “and” joins values, the source holds several entries; their conditions need not be identical. Identical values can stand only once.

Tests used:
[1] = MTT assay for cell viability; format: cell-based, mouse; conditions: mouse, RAW264.7 macrophage cells, 24 h, RAW264.7 cells
Experimental: The RAW 264.7 mouse macrophage cell line was obtained from the China Cell Line Bank (Beijing, China). Cells were cultured in complete medium (DMEM supplemented with 10% heat-inactivated FBS, 3 mM glutamine and antibiotics (100 U/mL penicillin and 100 U/mL streptomycin)) at 37 °C in a humidified incubator containing 5% CO2 and 95% air. […]
Cell viability studies induced by synthesised compounds were evaluated by 3-(4,5-dimethylthiazol-2-yl)-2,5-diphenyltetrazolium bromide (MTT) assay. RAW264.7 macrophages were seeded in 96-well plates at a density of 5 × 10^5 cells/mL in complete medium and incubated for 24 h (100 µL/well). Then the cells were treated with different concentrations of synthesised compounds for 24 h. 150 µL MTT (5 g/L in PBS) was added to each well and the cells were further incubated for 4 h. The supernatant was removed and the cells were lysed with 150 µL/well DMSO. The optical density was measured at 570 nm on a microplate reader (Thermo Scientific, MA, USA).

[2] = test system: LPS-induced NO production in RAW264.7 macrophages; assay: Inhibition of LPS-induced NO production (Griess); format: cell-based, mouse; conditions: 10 µM
Experimental: The RAW 264.7 mouse macrophage cell line was obtained from the China Cell Line Bank (Beijing, China). Cells were cultured in complete medium (DMEM supplemented with 10% heat-inactivated FBS, 3 mM glutamine and antibiotics (100 U/mL penicillin and 100 U/mL streptomycin)) at 37 °C in a humidified incubator containing 5% CO2 and 95% air. Cells were treated with various concentrations of synthesised compounds for 30 min followed by stimulation with LPS ([…]).
Nitrite, a stable product of nitric oxide, was used to assess NO production. To study the effects of the isolated compounds on NO production, RAW264.7 cells were plated at 1 × 10^5 cells/well in a 96-well microplate and incubated overnight. The cells were pre-treated with various concentrations of the test compounds (3, 7.5, 10, 15, 30 or 100 µM) and further co-cultured with 1 µg/mL LPS for 24 h. Un-pre-treated and un-stimulated RAW 264.7 cells were conducted as the blank control group. At different time points, the supernatant (50 µL) was assayed with NO assay kit. The culture supernatant (50 µL) was mixed with an equal volume of the Griess reagent (1% sulphanilamide, 0.1% N-[1-naphthy] ethylenediamine dihydrochloride) and NO production were determined at 540 nm with an ELISAplate reader.

[3] = test system: carrageenan-induced paw oedema; assay: Carrageenan-induced paw oedema model; format: in vivo, rats; conditions: 25 mg/kg p.o., n = 4
From the text: The animal procedures were in strict accordance with the National Institutes of Healthy Guidelines for the Care and Use of Laboratory Animals (NIH Publication No. 85-23, revised 1996) and were approved by the Institutional Animal Care and Utilisation Committee of Yanbian University. Male albino rats weighing 280–300 gwere obtained from Animal Department of Yanbian University . They were kept in the animal house under standard condition of light and temperature with free access to food and water. The animals were randomly divided into five groups (control, D1, 6p, ibuprofen and celecoxib group) The groups with D1, 6p, ibuprofen and celecoxib were administered oral administration (p.o.) 25 mg/kg in a vehicle of 0.5% methylcellulose, respectively. The negative control group was treated with the same vehicle (0.5% methylcellulose). A solution of carrageenan (0.1 ml, 1.0% w/v in 0.9% of normal saline) was injected into the subplanter region of the left hind paw under light ether anaesthesia 1 h after oral administration (p.o.) of the test compound (at a dose level of 25 mg/kg body weight). The paw volume was measured at hourly interval for 5 h (0, 1, 3 and 5 h) and the percent inhibition of oedema was calculated using formula: %Inhibition=(Vt−Vo)control−(Vt−Vo)tested compound /(Vt−Vo)control×100 where, • Vo = volume of oedema at zero time interval. • Vt = volume of oedema at specific time interval.

[4] = test system: gastric mucosa (stomach lesions); assay: Ulcerogenic effect; format: in vivo; conditions: 25 mg/kg p.o. once a day for three days, rats
Experimental: The lead compound D1 and the newly synthesised compound 6p were subjected to in vivo testing to measure their ulcerogenic effect in comparison to celecoxib and ibuprofen. Male albino rats (220–250 g) divided into 5 groups (control, D1, 6p, ibuprofen and celecoxib group) of five rats each. The groups with D1, 6p, ibuprofen, and celecoxib were administered oral administration (p.o.) 25 mg/kg in a vehicle of 0.5% methylcellulose, respectively. The negative control group was treated with the same vehicle (0.5% methylcellulose). All groups were orally administered once a day for three consecutive days. Animals were sacrificed by diethyl ether 6 h after the last dose and the stomach was removed. An opening at the greater curvature was made and the stomach was cleaned by washing with cold saline and inspected with a three-time magnifying lens for any evidence of hyperaemia, haemorrhage, definite haemorrhagic erosion, or ulcer. An arbitrary scale was used to calculate the ulcer index which indicates the severity of the stomach lesions The % ulceration for each group was calculated as follows: % Ulceration = Number of animals bearing ulcer in a group/Total number of animals in the same group ×100.

Row | Structure (SMILES) | melting point [°C] | viability at 24 h, 30 µM [1] [%] | viability at 24 h, 10 µM [1] [%] | further results
1 | NC(=O)c1nnc2c(=O)n(Cc3ccccc3F)c3ccccc3n12 [6h, 5-(2-fluorobenzyl)-4-oxo-4,5-dihydro-[1,2, 4]triazolo[4,3-a]quinoxaline-1-carboxamide] | 273 to 275 | 66.7 ± 1.33 | 98.5 ± 1.76 | 
2 | NC(=O)c1nnc2c(=O)n(Cc3cccc(F)c3)c3ccccc3n12 [6i, 5–(3-fluorobenzyl)-4-oxo-4,5-dihydro-[1,2, 4]triazolo[4,3-a]quinoxaline-1-carboxamide] | 276 to 278 | 59.3 ± 2.52 | 99.5 ± 4.17 | 
3 | NC(=O)c1nnc2c(=O)n(Cc3ccc(F)cc3)c3ccccc3n12 [6j, 5-(4-fluorobenzyl)-4-oxo-4,5-dihydro-[1,2, 4]triazolo[4,3-a]quinoxaline-1-carboxamide] | 274 to 276 | 48 ± 3 | 73.5 ± 2.27 | 
4 | NC(=O)c1nnc2c(=O)n(Cc3ccc(Cl)cc3Cl)c3ccccc3n12 [6q, 5-(2,4-dichlorobenzyl)-4-oxo-4,5-dihydro-[1,2, 4]triazolo[4,3-a]quinoxaline-1-carboxamide] | 266 to 268 | 56.7 ± 1.34 | 84.7 ± 6.49 | 
5 | NC(=O)c1nnc2c(=O)n(Cc3cccc(C(F)(F)F)c3)c3ccccc3n12 [6r, 5-(3-(Trifluoromethyl)benzyl)-4-oxo-4,5-dihydro-[1,2, 4]triazolo[4,3-a]quinox-aline-1-carboxamide] | 262 to 264 | 99.3 ± 0.6 |  | 
6 | NC(=O)c1nnc2c(=O)n(Cc3ccc([N+](=O)[O-])cc3)c3ccccc3n12 [6s, 5-(4-nitrobenzyl)-4-oxo-4,5-dihydro-[1,2, 4]triazolo[4,3-a]quinoxaline-1-carb-oxamide] | 273 to 275 | 80.1 ± 1.34 |  | 
7 | N#Cc1ccc(Cn2c(=O)c3nnc(C(N)=O)n3c3ccccc32)cc1 [6t, 5-(4-cyanobenzyl)-4-oxo-4,5-dihydro-[1,2, 4]triazolo[4,3-a]quinoxaline-1-carboxamide] | 298 to 300 | 90.3 ± 1.21 |  | 
8 | Cc1ccc(-c2cc(C(F)(F)F)nn2-c2ccc(S(N)(=O)=O)cc2)cc1 [Celecoxib] |  |  |  | % of oedema inhibition (% mean ± SD) ([3]; 1 h): 48.09 ± 5.33%; % of oedema inhibition (% mean ± SD) ([3]; 3 h, 25 mg/kg): 58.34 ± 4.08%; % of oedema inhibition (% mean ± SD) ([3]; 3 h, listed as celecoxib, 25 mg/kg): 58.34%; % of oedema inhibition (% mean ± SD) ([3]; 5 h): 41.92 ± 2.05%
9 | Cc1cccc(Oc2nn3c(C(N)=O)nnc3c3ccccc23)c1 [D1] |  | 96.3 ± 1.72 |  | inhibition at 10 µM ([2]; Mus musculus, RAW264.7, LPS 1 µg/mL, 24 h, read-out: NO inhibitory activity (% inhibition)): 10.3%; % of oedema inhibition (% mean ± SD) ([3]; 1 h): 38.26 ± 2.82%; % of oedema inhibition (% mean ± SD) ([3]; 3 h, 25 mg/kg): 42.81% and 42.81 ± 2.11%; % of oedema inhibition (% mean ± SD) ([3]; 5 h): 28.71 ± 2.92%; % ulceration [4]: 20%
10 | CC(C)Cc1ccc(C(C)C(=O)O)cc1 (stereo not shown) [Ibuprofen] |  |  |  | % of oedema inhibition (% mean ± SD) ([3]; 1 h): 31.92 ± 5.76%; % of oedema inhibition (% mean ± SD) ([3]; 3 h, 25 mg/kg): 39.30 ± 4.86%; % of oedema inhibition (% mean ± SD) ([3]; 3 h, listed as ibuprofen, 25 mg/kg): 39.30%; % of oedema inhibition (% mean ± SD) ([3]; 5 h): 25.29 ± 3.43%

The next lines start with results.

Row | melting point [°C] | Structure (SMILES) | viability at 24 h, 30 µM [1] [%] | viability at 24 h, 10 µM [1] [%] | further results
11 | 262 to 264 | CCCCn1c(=O)c2nnc(C(N)=O)n2c2ccccc21 [6a, 5-butyl-4-oxo-4,5-dihydro-[1,2, 4]triazolo[4,3-a]quinoxaline-1-carboxamide] | 92.3 ± 1.53 |  | 
12 | 232 to 234 | CCCCCn1c(=O)c2nnc(C(N)=O)n2c2ccccc21 [6b, 5-pentyl-4-oxo-4,5-dihydro-[1,2, 4]triazolo[4,3-a]quinoxaline-1-carboxamide] | 98 ± 1.1 |  | 
13 | 239 to 241 | CCCCCCn1c(=O)c2nnc(C(N)=O)n2c2ccccc21 [6c, 5-hexyl-4-oxo-4,5-dihydro-[1,2, 4]triazolo[4,3-a]quinoxaline-1-carboxamide] | 99.11 ± 0.69 |  | 
14 | 231 to 233 | CCCCCCCn1c(=O)c2nnc(C(N)=O)n2c2ccccc21 [6d, 5-heptyl-4-oxo-4,5-dihydro-[1,2, 4]triazolo[4,3-a]quinoxaline-1-carboxamide] | 81 ± 1.1 |  | 
15 | 230 to 232 | CCCCCCCCn1c(=O)c2nnc(C(N)=O)n2c2ccccc21 [6e, 5-octyl-4-oxo-4,5-dihydro-[1,2, 4]triazolo[4,3-a]quinoxaline-1-carboxamide] | 99.5 ± 2.3 |  | anti-inflammatory activity (NO) within 5-alkyl derivatives 6a–6f ([2]; SAR ranking): the most active
16 | 236 to 238 | CCCCCCCCCn1c(=O)c2nnc(C(N)=O)n2c2ccccc21 [6f, 5-nonyl-4-oxo-4,5-dihydro-[1,2, 4]triazolo[4,3-a]quinoxaline-1-carboxamide] | 60 ± 3.4 | 99.2 ± 1.65 | 
17 | 268 to 270 | NC(=O)c1nnc2c(=O)n(Cc3ccccc3)c3ccccc3n12 [6g, 5-benzyl-4-oxo-4,5-dihydro-[1,2, 4]triazolo[4,3-a]quinoxaline-1-carboxamide] | 85 ± 1 |  | 
18 | 278 to 280 | NC(=O)c1nnc2c(=O)n(Cc3ccccc3Cl)c3ccccc3n12 [6k, 5-(2-chlorobenzyl)-4-oxo-4,5-dihydro-[1,2, 4]triazolo[4,3-a]quinoxaline-1-carboxamide] | 46.3 ± 2.89 | 74.6 ± 1.38 | 
19 | 269 to 271 | NC(=O)c1nnc2c(=O)n(Cc3cccc(Cl)c3)c3ccccc3n12 [6l, 5-(3-chlorobenzyl)-4-oxo-4,5-dihydro-[1,2, 4]triazolo[4,3-a]quinoxaline-1-carboxamide] | 51.7 ± 2.12 | 87.9 ± 5.18 | 
20 | 282 to 284 | NC(=O)c1nnc2c(=O)n(Cc3ccc(Cl)cc3)c3ccccc3n12 [6m, 5-(4-chlorobenzyl)-4-oxo-4,5-dihydro-[1,2, 4]triazolo[4,3-a]quinoxaline-1-carboxamide] | 44.7 ± 3.06 | 82.2 ± 1.74 | 
21 | 266 to 268 | COc1cccc(Cn2c(=O)c3nnc(C(N)=O)n3c3ccccc32)c1 [6n, 5-(3-methoxybenzyl)-4-oxo-4,5-dihydro-[1,2, 4]triazolo[4,3-a]quinoxaline-1-carboxamide] | 93.33 ± 0.58 |  | 
22 | 264 to 266 | COc1ccc(Cn2c(=O)c3nnc(C(N)=O)n3c3ccccc32)cc1 [6o, 5-(4-methoxybenzyl)-4-oxo-4,5-dihydro-[1,2, 4]triazolo[4,3-a]quinoxaline-1-carboamide] | 80.1 ± 1 |  | 
